Measured values from patent US10214542B2, “Modified macrocyclic compounds” (BAYER PHARMA AKTIENGESELLSCHAFT, priority 2015, dated 2019).
Like-named read-outs stand apart in the source and are kept apart here.

Legend:
CDK2/CycE = molecular target: T1, CDK2/CycE (Homo sapiens, UniProt P24941); assay: CDK2/CycE high ATP kinase assay (TR-FRET, Method 2b); format: biochemical; conditions: 2 mM ATP
T1 construct: GST; purchased ProQinase GmbH (Freiburg, Germany); host or cells: insect cells (Sf9)
Procedure: 2b. CDK2/CycE High ATP Kinase Assay:
CDK2/CycE-inhibitory activity of compounds of the present invention at 2 mM adenosine-tri-phosphate (ATP) was quantified employing the CDK2/CycE TR-FRET (TR-FRET=Time Resolved Fluorescence Resonance Energy Transfer) assay as described in the following paragraphs.
Recombinant fusion proteins of GST and human CDK2 and of GST and human CycE, expressed in insect cells (Sf9) and purified by Glutathion-Sepharose affinity chromatography, were purchase from ProQinase GmbH (Freiburg, Germany). As substrate for the kinase reaction biotinylated peptide biotin-Ttds-YISPLKSPYKISEG (C-terminus in amid form) was used which can be purchased e.g. from the company JERINI peptide technologies (Berlin, Germany).
For the assay 50 nl of a 100 fold concentrated solution of the test compound in DMSO was pipetted into a black low volume 384 well microtiter plate (Greiner Bio-One, Frickenhausen, Germany), 2 μl of a solution of CDK2/CycE in aqueous assay buffer [50 mM Tris/HCl pH 8.0, 10 mM MgCl2, 1.0 mM dithiothreitol, 0.1 mM sodium ortho-vanadate, 0.01% (v/v) Nonidet-P40 (Sigma)] were added and the mixture was incubated for 15 min at 22° C. to allow pre-binding of the test compounds to the enzyme before the start of the kinase reaction. Then the kinase reaction was started by the addition of 3 μl of a solution ATP (3.33 mM=>final conc. in the 5 μl assay volume is 2 mM) and substrate (1.25 μM=>final conc. in the 5 μl assay volume is 0.75 μM) in assay buffer and the resulting mixture was incubated for a reaction time of 25 min at 22° C. The concentration of CDK2/CycE was adjusted depending of the activity of the enzyme lot and was chosen appropriate to have the assay in the linear range, typical concentrations were in the range of 15 ng/ml. The reaction was stopped by the addition of 5 μl of a solution of TR-FRET detection reagents (0.2 μM streptavidine-XL665 [Cisbio Bioassays, Codolet, France] and 1 nM anti-RB(pSer807/pSer811)-antibody from BD Pharmingen [#558389] and 1.2 nM LANCE EU-W1024 labeled anti-mouse IgG antibody [Perkin-Elmer, product no. AD0077, as an alternative a Terbium-cryptate-labeled anti-mouse IgG antibody from Cisbio Bioassays can be used]) in an aqueous EDTA-solution (100 mM EDTA, 0.2% (w/v) bovine serum albumin in 100 mM HEPES pH 7.5).
The resulting mixture was incubated 1 h at 22° C. to allow the formation of complex between the phosphorylated biotinylated peptide and the detection reagents. Subsequently the amount of phosphorylated substrate was evaluated by measurement of the resonance energy transfer from the Eu-chelate to the streptavidine-XL. Therefore, the fluorescence emissions at 620 nm and 665 nm after excitation at 350 nm were measured in a TR-FRET reader, e.g. a Rubystar (BMG Labtechnologies, Offenburg, Germany) or a Viewlux (Perkin-Elmer). The ratio of the emissions at 665 nm and at […] was taken as the measure for the amount of phosphorylated substrate. The data were normalised (enzyme reaction without inhibitor=0% inhibition, all other assay components but no enzym=100% inhibition).

HeLa cells = assay: Proliferation assay, crystal violet (Method 3); format: cell-based, human; conditions: 4 days, read-out: Inhibition of HeLa cell proliferation IC50
Procedure: Cultivated tumour cells (HeLa, human cervical tumour cells, ATCC CCL-2; NCI-H460, human non-small cell lung carcinoma cells, ATCC HTB-177; DU 145, hormone-independent human prostate carcinoma cells, ATCC HTB-81; HeLa-MaTu-ADR, multidrug-resistant human cervical carcinoma cells, EPO-GmbH Berlin; Caco-2, human colorectal carcinoma cells, ATCC HTB-37; B16F10, mouse melanoma cells, ATCC CRL-6475) were plated at a density of 5,000 cells/well (DU145, HeLa-MaTu-ADR), 3,000 cells/well (NCI-H460, HeLa), 1,500 cells/well (Caco-2), or 1,000 cells/well (B16F10) in a 96-well multititer plate in 200 μL of their respective growth medium supplemented 10% fetal calf serum. After 24 hours, the cells of one plate (zero-point plate) were stained with crystal violet (see below), while the medium of the other plates was supplemented with the test substances in various concentrations (0 μM, as well as in the range of 0.0001-10 μM; the final concentration of the solvent dimethyl sulfoxide was adjusted to 0.1%) using a Hewlett-Packard HP D300 Digital Dispenser. The cells were incubated for 4 days in the presence of test substances. Cell proliferation was determined by staining the cells with crystal violet: the cells were fixed by adding 20 μl/measuring point of an 11% glutaric aldehyde solution for 15 minutes at room temperature. After three washing cycles of the fixed cells with water, the plates were dried at room temperature. The cells were stained by adding 100 μl/measuring point of a 0.1% crystal violet solution (pH 3.0). After three washing cycles of the stained cells with water, the plates were dried at room temperature. The dye was dissolved by adding 100 μl/measuring point of a 10% acetic acid solution. The extinction was determined by photometry at a wavelength of 595 nm. The change of cell number, in percent, was calculated by normalization of the measured values to the extinction values of the zero-point plate (=0%) and the extinction of the untreated (0 μm) cells (=100%). The IC50 values (inhibitory concentration at 50% of maximal effect) were determined by means of a 4 parameter fit.

A2780 cells = assay: Proliferation assay, Cell Titre-Glo viability (Method 3); format: cell-based, human; conditions: Homo sapiens, A2780, 72 h, A2780, 72-hour exposure; read-out: Inhibition of A2780 cell proliferation IC50
Procedure: A2780 human ovarian carcinoma cells (ECACC #93112519) and non-adherent MOLM-13 human acute myeloid leukemia cells (DSMZ ACC 554) were seeded at a density of 3,000 cell/well (A2780) or 5,000 cells/well (MOLM-13) in a 96-well multititer plate in 150 μL of growth medium supplemented 10% fetal calf serum. After 24 hours, cell viability of one plate (zero-point plate) was determined with the Cell Titre-Glo Luminescent Cell Viability Assay (Promega), while the medium of the other plates was supplemented with the test substances in various concentrations (0 μM, as well as in the range of 0.0001-10 μM; the final concentration of the solvent dimethyl sulfoxide was adjusted to 0.1%) using a Hewlett-Packard HP D300 Digital Dispenser. Cell viability was assessed after 72-hour exposure with the Cell
Titre-Glo Luminescent Cell Viability Assay (Promega). IC50 values (inhibitory concentration at 50% of maximal effect) were determined by means of a 4 parameter fit on measurement data which were normalized to vehicle (DMSO) treated cells (=100%) and measurement readings taken immediately before compound exposure (=0%).

SMILES: CS(=O)(Cc1cc2nc(c1)Nc1cc(c(F)cn1)-c1ccc(F)cc1OCCCCN2)=NC(=O)OCc1ccccc1 (racemic) [Example 2, (rac)-Benzyl[{[16,20-difluoro-3,4,5,6-tetrahydro-2H,12H-11,7-(azeno)-13,17-(metheno)-1,6,12,14-benzoxatriazacyclononadecin-9-yl]methyl}(methyl)oxido-λ^6-sulfanylidene]carbamate]
- IC50 (CDK2/CycE): 8050 nM
- IC50 (HeLa cells): > 100 nM
- IC50 (HeLa cells; Homo sapiens, 96 h): 77 nM
- IC50 (A2780 cells): 38 nM

SMILES: CS(=N)(=O)Cc1cc2nc(c1)Nc1cc(c(F)cn1)-c1ccc(F)cc1OCCCCN2 (racemic) [Example 3, (rac)-16,20-Difluoro-9-[(S-methylsulfonimidoyl)methyl]-3,4,5,6-tetrahydro-2H,12H-11,7-(azeno)-13,17-(metheno)-1,6,12,14-benzoxatriazacyclononadecine]
- IC50 (CDK2/CycE): 650 nM
- IC50 (A2780 cells): 5.5 nM

SMILES: C[S+]([O-])Cc1cc2nc(c1)OCCCCc1cc(F)ccc1-c1cc(ncc1F)N2 (racemic) [Example 5, (rac)-2,18-Difluoro-9-[(methylsulfinyl)methyl]-13,14,15,16-tetrahydro-6H-7,11-(azeno)-5,1-(metheno)-12,4,6-benzoxadiazacyclooctadecine]
- IC50 (CDK2/CycE): 8250 nM
- IC50 (HeLa cells; Homo sapiens, 96 h): 955 nM
- IC50 (A2780 cells): 270 nM

SMILES: CC(C)(C)OC(=O)N=S(C)(=O)Cc1cc2nc(c1)Nc1cc(c(F)cn1)-c1ccc(F)cc1OCCCN2 (racemic) [Example 7, (rac)-tert-butyl[{[15,19-difluoro-2,3,4,5-tetrahydro-11H-10,6-(azeno)-16,12-(metheno)-1,5,11,13-benzoxatriazacyclooctadecin-8-yl]methyl}(methyl)oxido-λ^6-sulfanylidene]carbamate]
- IC50 (CDK2/CycE): 61 nM
- IC50 (HeLa cells; Homo sapiens, 96 h): 32 nM
- IC50 (A2780 cells): 7 nM

SMILES: CS(=N)(=O)Cc1cc2nc(c1)Nc1cc(c(F)cn1)-c1ccc(F)cc1OCCCN2 (racemic) [Example 8, (rac)-15,19-difluoro-8-[(S-methylsulfonimidoyl)methyl]-2,3,4,5-tetrahydro-11H-10,6-(azeno)-16,12-(metheno)-1,5,11,13-benzoxatriazacyclooctadecine]
- IC50 (CDK2/CycE): 29 nM
- IC50 (HeLa cells; Homo sapiens, 96 h): 3.3 nM
- IC50 (A2780 cells): 1.4 nM

SMILES: CC(C)(C)OC(=O)N=S(C)(=O)Cc1cc2nc(c1)Nc1cc(c(F)cn1)-c1ccc(F)cc1OCCCCCN2 (racemic) [Example 9, (rac)-tert-butyl[{[17,21-difluoro-2,3,4,5,6,7-hexahydro-13H-12,8-(azeno)-14,18-(metheno)-1,7,13,15-benzoxatriazacycloicosin-10-yl]methyl}(methyl)oxido-λ^6-sulfanylidene]carbamate]
- IC50 (CDK2/CycE): 253 nM
- IC50 (HeLa cells; Homo sapiens, 96 h): 33 nM
- IC50 (A2780 cells): 27 nM

SMILES: CS(=N)(=O)Cc1cc2nc(c1)Nc1cc(c(F)cn1)-c1ccc(F)cc1OCCCCCN2 (racemic) [Example 10, (rac)-17,21-difluoro-10-[(S-methylsulfonimidoyl)methyl]-2,3,4,5,6,7-hexahydro-13H-12,8-(azeno)-14,18-(metheno)-1,7,13,15-benzoxatriazacycloicosine]
- IC50 (CDK2/CycE): 102 nM
- IC50 (HeLa cells; Homo sapiens, 96 h): 14 nM
- IC50 (A2780 cells): 5.2 nM

SMILES: CN1CCCCOc2cc(F)ccc2-c2cc(ncc2F)Nc2cc(CS(C)(=N)=O)cc1n2 (racemic) [Example 11, (rac)-16,20-difluoro-6-methyl-9-[(S-methylsulfonimidoyl)methyl]-3,4,5,6-tetrahydro-2H-7,11-(azeno)-17,13-(metheno)-1,6,12,14-benzoxatriazacyclononadecine]
- IC50 (CDK2/CycE): 80 nM
- IC50 (HeLa cells; Homo sapiens, 96 h): 10 nM
- IC50 (A2780 cells): 4.6 nM

SMILES: CS(=N)(=O)Cc1cc2cc(c1)OCCCNc1cc(F)ccc1-c1nc(ncc1F)N2 (racemic) [Example 14, rac-15,19-difluoro-8-[(S-methylsulfonimidoyl)methyl]-1,2,3,4-tetrahydro-16,12-(azeno)-6,10-(metheno)-5,1,11,13-benzoxatriazacyclooctadecine]
- IC50 (CDK2/CycE): 94 nM
- IC50 (A2780 cells): 4.7 nM

SMILES: CN1CCCCOc2cc(F)ccc2-c2nc(ncc2F)Nc2cc(CS(C)(=N)=O)cc1c2 (racemic) [Example 23, (rac)-16,20-difluoro-6-methyl-9-[(S-methylsulfonimidoyl)methyl]-3,4,5,6-tetrahydro-2H,12H-13,17-(azeno)-11,7-(metheno)-1,6,12,14-benzoxatriazacyclononadecine]
- IC50 (CDK2/CycE): 1320 nM
- IC50 (A2780 cells): 13 nM

SMILES: CC(C)(C)OC(=O)N=S(C)(=O)Cc1cc2cc(c1)Nc1ncc(F)c(n1)-c1ccc(F)cc1OCCCCN2 (racemic) [Example 24, (rac)-tert-butyl[{[16,20-difluoro-3,4,5,6-tetrahydro-2H,12H-13,17-(azeno)-11,7-(metheno)-1,6,12,14-benzoxatriazacyclononadecin-9-yl]methyl}(methyl)oxido-λ^6-sulfanylidene]carbamate]
- IC50 (CDK2/CycE): > 20000 nM

SMILES: CSCc1cc2nc(c1)OCCCCc1cc(F)ccc1-c1cc(ncc1F)N2 [Example 4, 2,18-Difluoro-9-[(methylsulfanyl)methyl]-13,14,15,16-tetrahydro-6H-7,11-(azeno)-5,1-(metheno)-12,4,6-benzoxadiazacyclooctadecine]
- IC50 (CDK2/CycE): > 20000 nM
- IC50 (HeLa cells; Homo sapiens, 96 h): 9280 nM

SMILES: CSCc1cc2nc(c1F)N(C)CCCCOc1cc(F)ccc1-c1cc(ncc1F)N2 [Example 12, 8,16,20-trifluoro-6-methyl-9-[(methylsulfanyl)methyl]-3,4,5,6-tetrahydro-2H,12H-11,7-(azeno)-13,17-(metheno)-1,6,12,14-benzoxatriazacyclononadecine]
- IC50 (HeLa cells; Homo sapiens, 96 h): 851 nM
- IC50 (A2780 cells): > 100 nM
